Assay results reported in patent publication US20230146455A1, “TREATMENT OF INFLAMMATORY DISEASES WITH PEPTIDES AND PHARMACEUTICAL COMPOSITIONS” (Yuyu Pharma, Inc., priority 2020, published 2023).
Several values for one entry are separate records, joined by “and”; a condition that tells them apart may be missing. Equal values may be shown once. Where a SMILES comes first, the peptide text is derived from it. [ ]: non-standard residue; d: D form. Hyp = O=C(O)[C@@H]1C[C@@H](O)CN1

Test system: TIMP-1
Assay: Example 9 Luminex, LPS hPBMCs: TIMP-1
Type: cell-based, human
Protocol: Treatment Human PBMCs were pretreated with YY-101, YDE-011 and YDE-043 or reference compound; Xiidra® at various concentration (ranging from 1 nM to 100 uM) for 2 h before stimulation. An equal volume of 0.5% DMSO was used as a vehicle control. Then, the cells were treated with LPS at 5 ug/ml. The supernatants from treated cells were harvested at 24 h and placed in a 96 well for Luminex cytokine & chemokine profiling using a Luminex 200 multiplex assay (Luminex; R&D system, USA).
The main study arm with triplicate wells per group in a 24-well plate: • 1. Blank • 2. PBMC: 0.5% DMSO • 3. PBMC+LPS (5 ug/ml) • 4. PBMC+YY-101 100 uM • 5. PBMC+YY-101 10 uM • 6. PBMC+YY-101 1 uM • 7. PBMC+YY-101 0.1 uM • 8. PBMC+YY-101 0.01 uM • 9. PBMC+LPS (5 ug/ml)+Xiidra®100 uM • 10. PBMC+LPS (5 ug/ml)+Xiidra® 10 uM • 11. PBMC+LPS (5 ug/ml)+Xiidra® 1 uM • 12. PBMC+LPS (5 ug/ml)+Xiidra®0.1 uM • 13. PBMC+LPS (5 ug/ml)+Xiidra®0.01 uM • 14. PBMC+LPS (5 ug/ml)+Xiidra®0.001 uM • 15. PBMC+LPS (5 ug/ml)+YY-101 100 uM • 16. PBMC+LPS (5 ug/ml)+YY-101 10 uM • 17. PBMC+LPS (5 ug/ml)+YY-101 1 uM • 18. PBMC+LPS (5 ug/ml)+YY-101 0.1 uM • 19. PBMC+LPS (5 ug/ml)+YY-101 0.01 uM • 20. PBMC+LPS (5 ug/ml)+YY-101 0.001 uM • 21. PBMC+LPS (5 ug/ml)+YDE-011 100 uM • 22. PBMC+LPS (5 ug/ml)+YDE-011 10 uM • 23. PBMC+LPS (5 ug/ml)+YDE-011 1 uM • 24. PBMC+LPS (5 ug/ml)+YDE-011 0.1 uM • 25. PBMC+LPS (5 ug/ml)+YDE-011 0.01 uM • 26. PBMC+LPS (5 ug/ml)+YDE-011 0.001 uM • 27. PBMC+LPS (5 ug/ml)+YDE-043 100 uM • 28. PBMC+LPS (5 ug/ml)+YDE-043 10 uM • 29. PBMC+LPS (5 ug/ml)+YDE-043 1 uM • 30. PBMC+LPS (5 ug/ml)+YDE-043 0.1 uM • 31. PBMC+LPS (5 ug/ml)+YDE-043 0.01 uM • 32. PBMC+LPS (5 ug/ml)+YDE-043 0.001 uM
Multiplex assay was used to measure 30 cytokines and chemokines. The 1:2, 1:10 and 1:200 diluted cell supernatant and serial dilution of the standard were dispensed into a 96 well plate at 50 ul/well. Then, the pre-mixed cocktail of antibody-coated magnetic beads was dispensed at 50 ul/well and incubated at room temperature for 2 h in a horizontal orbital microplate shaker at 800±500 rpm. The beads were washed using a magnetic device to prevent loss. The biotin-antibody was dispensed in 50 ul of each well and incubated at room temperature for 1 h in a shaker at 800±500 rpm. After washing, streptavidin-PE was added at 50 ul/well and incubated at room temperature for 30 min in a shaker under the same conditions. Finally, after washing, wash buffer (100 ul/well) was added to the plate and incubated in a shaker for 2 min. The Luminex™ 200 setting were set according to the manufacturer's protocol. The data was calculated with a standard five-parameter logistic nonlinear regression analysis of the data (xPonent software 4.2, USA). The levels of cytokine/chemokine are normalized to the live cell counts (1×10^5 cells/mL) and presented as concentrations per mL (pg/mL or ng/mL).

[1] = PBMC + LPS(5 ug/ml), test article 0.001 uM, Mean
[2] = PBMC + LPS(5 ug/ml), test article 0.001 uM, single replicates
[3] = PBMC + LPS(5 ug/ml), test article 0.01 uM, Mean
[4] = PBMC + LPS(5 ug/ml), test article 0.01 uM, single replicates
[5] = PBMC + LPS(5 ug/ml), test article 0.1 uM, Mean
[6] = PBMC + LPS(5 ug/ml), test article 0.1 uM, single replicates
[7] = PBMC + LPS(5 ug/ml), test article 1 uM, Mean
[8] = PBMC + LPS(5 ug/ml), test article 1 uM, single replicates
[9] = PBMC + LPS(5 ug/ml), test article 10 uM, Mean
[10] = PBMC + LPS(5 ug/ml), test article 10 uM, single replicates
[11] = PBMC + LPS(5 ug/ml), test article 100 uM, Mean
[12] = PBMC + LPS(5 ug/ml), test article 100 uM, single replicates
[13] = PBMC without LPS, test article 0.01 uM, Mean
[14] = PBMC without LPS, test article 0.01 uM, single replicates
[15] = PBMC without LPS, test article 0.1 uM, Mean
[16] = PBMC without LPS, test article 0.1 uM, single replicates
[17] = PBMC without LPS, test article 1 uM, Mean
[18] = PBMC without LPS, test article 1 uM, single replicates
[19] = PBMC without LPS, test article 10 uM, Mean
[20] = PBMC without LPS, test article 10 uM, single replicates
[21] = PBMC without LPS, test article 100 uM, Mean
[22] = PBMC without LPS, test article 100 uM, single replicates

Compound: CC(C)C[C@H](NC(=O)CNC(=O)[C@H](CC(=O)O)NC(=O)[C@H](CCC(N)=O)NC(=O)CNC(=O)[C@@H]1C[C@@H](O)CN1)C(=O)N[C@@H](C)C(=O)NCC(=O)N1CCC[C@H]1C(=O)N[C@@H](CCCCN)C(=O)O [YY-101] (H-[Hyp]GQDGLAGPK-OH; N-terminus and C-terminus assumed)
- TIMP-1 Concentration [1]: 2635.9 pg/mL
- TIMP-1 MFI [1]: 1569.7
- TIMP-1 conc/live cell [1]: 411.8 pg/10^5
- TIMP-1 Concentration [2]: 2670.8 pg/mL and 2497.3 pg/mL and 2739.7 pg/mL
- TIMP-1 MFI [2]: 1596.0 and 1464.5 and 1648.5
- TIMP-1 conc/live cell [2]: 468.6 pg/10^5 and 351.7 pg/10^5 and 415.1 pg/10^5
- TIMP-1 Concentration [3]: 2651.1 pg/mL
- TIMP-1 MFI [3]: 1581.2
- TIMP-1 conc/live cell [3]: 430.2 pg/10^5
- TIMP-1 Concentration [4]: 2636.0 pg/mL and 2552.3 pg/mL and 2765.2 pg/mL
- TIMP-1 MFI [4]: 1569.5 and 1506.0 and 1668.0
- TIMP-1 conc/live cell [4]: 411.9 pg/10^5 and 425.4 pg/10^5 and 453.3 pg/10^5
- TIMP-1 Concentration [5]: 2599.6 pg/mL
- TIMP-1 MFI [5]: 1542.0
- TIMP-1 conc/live cell [5]: 445.1 pg/10^5
- TIMP-1 Concentration [6]: 2721.3 pg/mL and 2498.6 pg/mL and 2578.7 pg/mL
- TIMP-1 MFI [6]: 1634.5 and 1465.5 and 1526.0
- TIMP-1 conc/live cell [6]: 438.9 pg/10^5 and 480.5 pg/10^5 and 415.9 pg/10^5
- TIMP-1 Concentration [7]: 2672.9 pg/mL
- TIMP-1 MFI [7]: 1597.7
- TIMP-1 conc/live cell [7]: 410.8 pg/10^5
- TIMP-1 Concentration [8]: 2614.9 pg/mL and 2656.4 pg/mL and 2747.5 pg/mL
- TIMP-1 MFI [8]: 1553.5 and 1585.0 and 1654.5
- TIMP-1 conc/live cell [8]: 415.1 pg/10^5 and 374.1 pg/10^5 and 443.2 pg/10^5
- TIMP-1 Concentration [9]: 2693.7 pg/mL
- TIMP-1 MFI [9]: 1613.7
- TIMP-1 conc/live cell [9]: 409.5 pg/10^5
- TIMP-1 Concentration [10]: 2741.7 pg/mL and 2801.1 pg/mL and 2538.4 pg/mL
- TIMP-1 MFI [10]: 1650.0 and 1695.5 and 1495.5
- TIMP-1 conc/live cell [10]: 456.9 pg/10^5 and 437.7 pg/10^5 and 334.0 pg/10^5
- TIMP-1 Concentration [11]: 3324.7 pg/mL
- TIMP-1 MFI [11]: 2100.3
- TIMP-1 conc/live cell [11]: 574.3 pg/10^5
- TIMP-1 Concentration [12]: 3425.7 pg/mL and 3369.3 pg/mL and 3179.1 pg/mL
- TIMP-1 MFI [12]: 2179.0 and 2135.0 and 1987.0
- TIMP-1 conc/live cell [12]: 543.8 pg/10^5 and 543.4 pg/10^5 and 635.8 pg/10^5
- TIMP-1 Concentration [13]: 5306.9 pg/mL
- TIMP-1 MFI [13]: 3666.0
- TIMP-1 conc/live cell [13]: 1065.2 pg/10^5
- TIMP-1 Concentration [14]: 5042.4 pg/mL and 5571.4 pg/mL
- TIMP-1 MFI [14]: 3456.0 and 3876.0
- TIMP-1 conc/live cell [14]: 969.7 pg/10^5 and 1160.7 pg/10^5
- TIMP-1 Concentration [15]: 4907.8 pg/mL
- TIMP-1 MFI [15]: 3349.3
- TIMP-1 conc/live cell [15]: 971.6 pg/10^5
- TIMP-1 Concentration [16]: 4573.6 pg/mL and 5242.0 pg/mL
- TIMP-1 MFI [16]: 3084.0 and 3614.5
- TIMP-1 conc/live cell [16]: 1039.5 pg/10^5 and 903.8 pg/10^5
- TIMP-1 Concentration [17]: 5121.4 pg/mL
- TIMP-1 MFI [17]: 3518.8
- TIMP-1 conc/live cell [17]: 931.2 pg/10^5
- TIMP-1 Concentration [18]: 5155.8 pg/mL and 5087.1 pg/mL
- TIMP-1 MFI [18]: 3546.0 and 3491.5
- TIMP-1 conc/live cell [18]: 937.4 pg/10^5 and 924.9 pg/10^5
- TIMP-1 Concentration [19]: 6576.7 pg/mL
- TIMP-1 MFI [19]: 4666.8
- TIMP-1 conc/live cell [19]: 1047.2 pg/10^5
- TIMP-1 Concentration [20]: 8049.3 pg/mL and 5104.1 pg/mL
- TIMP-1 MFI [20]: 5828.5 and 3505.0
- TIMP-1 conc/live cell [20]: 1257.7 pg/10^5 and 836.7 pg/10^5
- TIMP-1 Concentration [21]: 6554.3 pg/mL
- TIMP-1 MFI [21]: 4654.3
- TIMP-1 conc/live cell [21]: 982.4 pg/10^5
- TIMP-1 Concentration [22]: 6886.9 pg/mL and 6221.7 pg/mL
- TIMP-1 MFI [22]: 4917.0 and 4391.5
- TIMP-1 conc/live cell [22]: 1076.1 pg/10^5 and 888.8 pg/10^5
